Article PMC9005681, “Use of AD Informer Set compounds to explore validity of novel targets in Alzheimer's disease pathology” (Alzheimer's & Dementia : Translational Research & Clinical …, 2022)
“And” between values parts separate entries of the source, which are not always exact repeats. Identical values can stand only once.

Legend:
[1] = pH 7.4; cited from earlier work
[2] = test system: cellular system; parameters: method as in column References for potency and dosing (the 5th table c13); conditions: published data; References for potency and dosing; cited from earlier work
[3] = Snapshot IV PK in CD1 mice; format: in vivo
How it was run: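 Single 3 mg/kg IV dose in CD1 mice, 2 per cohort; pooled plasma analysed at 0.5, 1, 2 and 4 h post-dose.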

[4] = molecular target: T1, cloned human or rodent CNS receptors, channels, and transporters (PDSP panel) (Homo sapiens, UniProt P23975); assay: PDSP GPCR panel primary binding assays at 10 μM; conditions: NET, primary assay
T1 construct: expressed in transfected cells
T1 sequence (P23975 whole entry): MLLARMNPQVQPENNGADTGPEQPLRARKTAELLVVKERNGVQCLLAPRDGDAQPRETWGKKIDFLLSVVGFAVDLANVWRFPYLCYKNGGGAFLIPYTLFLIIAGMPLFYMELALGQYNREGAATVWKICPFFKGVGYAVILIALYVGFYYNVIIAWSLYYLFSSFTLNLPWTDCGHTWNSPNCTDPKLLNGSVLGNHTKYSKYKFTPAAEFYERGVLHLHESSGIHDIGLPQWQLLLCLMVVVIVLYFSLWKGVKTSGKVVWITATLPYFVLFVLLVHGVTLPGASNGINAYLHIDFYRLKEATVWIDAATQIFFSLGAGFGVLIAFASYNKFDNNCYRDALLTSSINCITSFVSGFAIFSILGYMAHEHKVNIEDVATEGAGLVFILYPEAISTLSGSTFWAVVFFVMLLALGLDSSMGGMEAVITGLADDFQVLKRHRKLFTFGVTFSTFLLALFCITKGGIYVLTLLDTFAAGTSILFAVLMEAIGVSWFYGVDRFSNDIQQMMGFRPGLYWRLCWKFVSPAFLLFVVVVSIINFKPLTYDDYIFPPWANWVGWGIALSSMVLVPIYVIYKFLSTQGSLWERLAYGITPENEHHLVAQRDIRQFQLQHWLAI
How it was run: (§1)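 Competition binding with radiolabeled standard ligands, single 10 μM concentration, four replicates. Targets showing over 50% displacement were followed up with 11-point titrations in triplicate.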

[5] = molecular target: T2, cloned human or rodent CNS receptors, channels, and transporters (PDSP panel) (Homo sapiens, UniProt P14416); assay: PDSP GPCR panel primary binding assays at 10 μM; conditions: D2, primary assay
T2 construct: expressed in transfected cells
T2 sequence (P14416 whole entry): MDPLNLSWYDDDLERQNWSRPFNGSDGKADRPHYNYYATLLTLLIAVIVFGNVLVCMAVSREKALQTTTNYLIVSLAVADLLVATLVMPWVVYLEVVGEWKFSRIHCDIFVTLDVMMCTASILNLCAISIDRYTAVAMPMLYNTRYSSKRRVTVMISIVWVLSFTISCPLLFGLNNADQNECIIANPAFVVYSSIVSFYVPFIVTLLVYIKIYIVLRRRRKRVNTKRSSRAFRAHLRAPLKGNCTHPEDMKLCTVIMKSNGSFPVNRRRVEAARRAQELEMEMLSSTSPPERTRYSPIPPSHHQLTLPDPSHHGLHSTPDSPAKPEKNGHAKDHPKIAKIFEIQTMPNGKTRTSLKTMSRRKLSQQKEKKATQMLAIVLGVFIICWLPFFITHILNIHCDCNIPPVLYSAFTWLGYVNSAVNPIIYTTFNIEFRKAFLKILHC
How it was run: as §1

[6] = molecular target: T3, cloned human or rodent CNS receptors, channels, and transporters (PDSP panel) (Homo sapiens, UniProt P50406); assay: PDSP GPCR panel primary binding assays at 10 μM; conditions: 5-HT6, primary assay
T3 construct: expressed in transfected cells
T3 sequence (P50406 whole entry): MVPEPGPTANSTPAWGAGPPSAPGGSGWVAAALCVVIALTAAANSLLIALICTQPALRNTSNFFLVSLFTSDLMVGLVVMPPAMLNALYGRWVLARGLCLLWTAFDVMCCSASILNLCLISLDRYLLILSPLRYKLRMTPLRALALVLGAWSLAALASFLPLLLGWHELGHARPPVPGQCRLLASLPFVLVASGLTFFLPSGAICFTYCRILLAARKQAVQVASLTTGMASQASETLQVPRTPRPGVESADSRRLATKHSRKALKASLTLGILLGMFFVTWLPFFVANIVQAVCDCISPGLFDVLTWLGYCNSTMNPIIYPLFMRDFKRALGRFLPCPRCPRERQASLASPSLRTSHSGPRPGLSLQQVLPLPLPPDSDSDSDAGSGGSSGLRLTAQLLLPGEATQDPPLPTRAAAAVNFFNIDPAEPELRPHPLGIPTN
How it was run: as §1

[7] = molecular target: T4, cloned human or rodent CNS receptors, channels, and transporters (PDSP panel) (Homo sapiens, UniProt P35462); assay: PDSP GPCR panel primary binding assays at 10 μM; conditions: D3, primary assay
T4 construct: expressed in transfected cells
T4 sequence (P35462 whole entry): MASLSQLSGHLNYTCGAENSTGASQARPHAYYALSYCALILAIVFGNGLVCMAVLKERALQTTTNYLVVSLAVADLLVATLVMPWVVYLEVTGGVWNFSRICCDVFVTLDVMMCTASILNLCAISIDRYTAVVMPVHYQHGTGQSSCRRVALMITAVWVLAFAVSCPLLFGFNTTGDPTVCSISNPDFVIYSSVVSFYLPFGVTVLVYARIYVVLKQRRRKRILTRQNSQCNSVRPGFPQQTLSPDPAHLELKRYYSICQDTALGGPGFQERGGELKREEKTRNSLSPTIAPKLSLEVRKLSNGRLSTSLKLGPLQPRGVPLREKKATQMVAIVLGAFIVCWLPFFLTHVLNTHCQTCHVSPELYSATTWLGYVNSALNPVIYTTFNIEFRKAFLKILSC
How it was run: as §1

[8] = molecular target: T5, cloned human or rodent CNS receptors, channels, and transporters (PDSP panel) (Homo sapiens, UniProt P21918); assay: PDSP GPCR panel primary binding assays at 10 μM; conditions: D5, primary assay
T5 construct: expressed in transfected cells
T5 sequence (P21918 whole entry): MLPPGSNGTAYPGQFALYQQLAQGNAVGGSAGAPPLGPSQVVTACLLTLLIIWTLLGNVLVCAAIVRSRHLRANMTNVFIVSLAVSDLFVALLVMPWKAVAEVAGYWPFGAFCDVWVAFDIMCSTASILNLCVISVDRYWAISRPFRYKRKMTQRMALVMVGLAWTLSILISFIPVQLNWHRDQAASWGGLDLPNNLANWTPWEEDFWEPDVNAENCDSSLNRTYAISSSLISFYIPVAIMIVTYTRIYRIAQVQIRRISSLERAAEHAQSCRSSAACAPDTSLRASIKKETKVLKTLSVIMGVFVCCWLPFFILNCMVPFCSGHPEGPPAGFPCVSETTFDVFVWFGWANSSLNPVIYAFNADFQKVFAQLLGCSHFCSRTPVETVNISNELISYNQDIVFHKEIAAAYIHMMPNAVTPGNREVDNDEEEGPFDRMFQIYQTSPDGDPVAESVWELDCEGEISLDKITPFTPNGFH
How it was run: as §1

[9] = molecular target: T6, cloned human or rodent CNS receptors, channels, and transporters (PDSP panel) (Homo sapiens, UniProt P28222); assay: PDSP GPCR panel primary binding assays at 10 μM; conditions: 5-HT1B, primary assay
T6 construct: expressed in transfected cells
T6 sequence (P28222 whole entry): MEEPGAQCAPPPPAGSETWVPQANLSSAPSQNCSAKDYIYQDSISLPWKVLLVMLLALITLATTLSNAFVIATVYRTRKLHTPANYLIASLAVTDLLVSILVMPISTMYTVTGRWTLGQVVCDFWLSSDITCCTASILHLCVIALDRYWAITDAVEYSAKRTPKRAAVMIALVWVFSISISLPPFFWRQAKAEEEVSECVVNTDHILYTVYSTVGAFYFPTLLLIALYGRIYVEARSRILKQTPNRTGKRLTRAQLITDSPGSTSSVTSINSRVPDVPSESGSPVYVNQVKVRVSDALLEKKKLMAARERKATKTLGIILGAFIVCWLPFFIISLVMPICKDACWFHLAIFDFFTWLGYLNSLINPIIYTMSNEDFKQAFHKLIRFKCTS
How it was run: as §1

[10] = molecular target: T7, cloned human or rodent CNS receptors, channels, and transporters (PDSP panel) (Homo sapiens, UniProt P41595); assay: PDSP GPCR panel primary binding assays at 10 μM; conditions: 5-HT2B, primary assay
T7 construct: expressed in transfected cells
T7 sequence (P41595 whole entry): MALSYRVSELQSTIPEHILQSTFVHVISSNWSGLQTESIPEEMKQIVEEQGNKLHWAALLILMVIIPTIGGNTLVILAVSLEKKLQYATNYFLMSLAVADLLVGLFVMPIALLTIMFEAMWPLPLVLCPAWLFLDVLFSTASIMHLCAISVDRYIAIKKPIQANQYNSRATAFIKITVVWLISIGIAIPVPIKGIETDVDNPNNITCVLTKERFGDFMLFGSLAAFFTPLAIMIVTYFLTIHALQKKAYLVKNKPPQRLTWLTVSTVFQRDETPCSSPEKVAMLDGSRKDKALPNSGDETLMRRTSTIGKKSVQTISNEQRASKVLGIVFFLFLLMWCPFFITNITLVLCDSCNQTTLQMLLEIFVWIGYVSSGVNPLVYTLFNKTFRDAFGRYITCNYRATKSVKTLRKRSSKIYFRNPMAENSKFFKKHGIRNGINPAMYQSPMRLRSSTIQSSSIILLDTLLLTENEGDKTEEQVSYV
How it was run: as §1

[11] = molecular target: T8, cloned human or rodent CNS receptors, channels, and transporters (PDSP panel) (Homo sapiens, UniProt P08908); assay: PDSP GPCR panel primary binding assays at 10 μM; conditions: 5-HT1A, primary assay
T8 construct: expressed in transfected cells
T8 sequence (P08908 1-422): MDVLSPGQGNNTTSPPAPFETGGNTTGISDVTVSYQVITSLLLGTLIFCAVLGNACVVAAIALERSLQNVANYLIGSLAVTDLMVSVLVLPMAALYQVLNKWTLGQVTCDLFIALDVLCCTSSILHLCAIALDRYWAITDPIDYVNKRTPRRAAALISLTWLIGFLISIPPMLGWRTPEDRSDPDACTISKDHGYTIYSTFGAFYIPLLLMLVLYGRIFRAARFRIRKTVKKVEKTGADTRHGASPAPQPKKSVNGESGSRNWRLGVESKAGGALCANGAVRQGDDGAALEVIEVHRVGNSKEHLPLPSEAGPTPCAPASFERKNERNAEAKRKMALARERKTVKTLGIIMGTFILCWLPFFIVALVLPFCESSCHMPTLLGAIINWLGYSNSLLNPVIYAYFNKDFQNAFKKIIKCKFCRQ
How it was run: as §1

[12] = molecular target: T9, cloned human or rodent CNS receptors, channels, and transporters (PDSP panel) (Homo sapiens, UniProt P08172); assay: PDSP GPCR panel primary binding assays at 10 μM; conditions: M2, primary assay
T9 construct: expressed in transfected cells
T9 sequence (P08172 1-466): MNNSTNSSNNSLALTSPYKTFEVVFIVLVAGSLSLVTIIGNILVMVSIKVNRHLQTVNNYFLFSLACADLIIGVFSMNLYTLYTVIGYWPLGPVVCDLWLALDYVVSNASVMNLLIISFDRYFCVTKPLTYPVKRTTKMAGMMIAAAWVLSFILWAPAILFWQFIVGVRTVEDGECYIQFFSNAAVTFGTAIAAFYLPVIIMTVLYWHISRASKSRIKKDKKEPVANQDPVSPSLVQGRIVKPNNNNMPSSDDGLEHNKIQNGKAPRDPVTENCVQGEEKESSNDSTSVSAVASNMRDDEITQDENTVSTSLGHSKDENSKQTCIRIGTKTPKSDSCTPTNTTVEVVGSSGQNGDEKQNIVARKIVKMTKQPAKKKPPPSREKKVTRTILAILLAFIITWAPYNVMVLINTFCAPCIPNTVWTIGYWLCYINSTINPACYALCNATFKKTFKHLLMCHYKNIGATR
How it was run: as §1

## CC(=O)N1CCC(NC(=O)NC23CC4CC(CC(C4)C2)C3)CC1 [UNC10302683A, AR9281]
[1]
  Kinetic solubility: 162.6 µM
[2]
  Reported as cell active (<10 μM): Y (Published data supports that the compound is active in a cellular system when dosed at 10 μM (Y/N))
[3]; CD1, mouse, plasma, iv, 3 mg/kg
  clearance: 93 mL/min/kg
[3]; CD1, plasma, mouse, 3.0 mg/kg
  Cmax: 1830 ng/mL
  half-life: 14.4 min
[3]; CD1, plasma, mouse, 3.0 mg/kg, read-out: Vss
  Vd: 0.47 L/kg
[3]; mouse, 3.0 mg/kg
  CL: 93.1 mL/min/kg
[4]; mean inhibition
  Mean %: 6.47% and 1.67%
[4]; replicate 1
  Inhibition 1: -14.58% and 25.31%
[4]; replicate 2
  Inhibition 2: -2.12% and 13.5%
[4]; replicate 3
  Inhibition 3: 2.28% and -19.09%
[4]; replicate 4
  Inhibition 4: 40.3% and -13.05%
[5]; mean inhibition
  Mean %: -5.85%
[5]; replicate 1
  Inhibition 1: -4.63%
[5]; replicate 2
  Inhibition 2: -2.98%
[5]; replicate 3
  Inhibition 3: -11.83%
[5]; replicate 4
  Inhibition 4: -3.95%
[6]; mean inhibition
  Mean %: 9.33%
[6]; replicate 1
  Inhibition 1: 32.27%
[6]; replicate 2
  Inhibition 2: 17.51%
[6]; replicate 3
  Inhibition 3: -5.68%
[6]; replicate 4
  Inhibition 4: -6.79%
[7]; mean inhibition
  Mean %: -9.76%
[7]; replicate 1
  Inhibition 1: -1.76%
[7]; replicate 2
  Inhibition 2: -6.19%
[7]; replicate 3
  Inhibition 3: -8.7%
[7]; replicate 4
  Inhibition 4: -22.39%
[8]; mean inhibition
  Mean %: -11.88%
[8]; replicate 1
  Inhibition 1: -7.18%
[8]; replicate 2
  Inhibition 2: -13.14%
[8]; replicate 3
  Inhibition 3: -18.03%
[8]; replicate 4
  Inhibition 4: -9.17%
[9]; mean inhibition
  Mean %: -0.64%
[9]; replicate 1
  Inhibition 1: 23.19%
[9]; replicate 2
  Inhibition 2: -3.93%
[9]; replicate 3
  Inhibition 3: -10.42%
[9]; replicate 4
  Inhibition 4: -11.4%
[10]; mean inhibition
  Mean %: -14.63%
[10]; replicate 1
  Inhibition 1: 28.05%
[10]; replicate 2
  Inhibition 2: -19.35%
[10]; replicate 3
  Inhibition 3: -37.81%
[10]; replicate 4
  Inhibition 4: -29.42%
[11]; mean inhibition
  Mean %: -6.08%
[11]; replicate 1
  Inhibition 1: 5.09%
[11]; replicate 2
  Inhibition 2: -13.88%
[11]; replicate 3
  Inhibition 3: -5.6%
[11]; replicate 4
  Inhibition 4: -9.91%
[12]; mean inhibition
  Mean %: -10.23%
[12]; replicate 1
  Inhibition 1: -16.19%
[12]; replicate 2
  Inhibition 2: -6.36%
[12]; replicate 3
  Inhibition 3: -14.96%
[12]; replicate 4
  Inhibition 4: -3.41%
